# From patent US7459277B2, “Mammalian T1R3 sweet taste receptors” (The Regents of the University of California, priority 2003, dated 2008)
# Residues, ends and D or L forms follow the SMILES beside them.
# T1: mouse T1R3 GPCR (Mus musculus, UniProt Q925D8)
# T1 construct: expressed in transfected cells
# T1 sequence (Q925D8 21-858): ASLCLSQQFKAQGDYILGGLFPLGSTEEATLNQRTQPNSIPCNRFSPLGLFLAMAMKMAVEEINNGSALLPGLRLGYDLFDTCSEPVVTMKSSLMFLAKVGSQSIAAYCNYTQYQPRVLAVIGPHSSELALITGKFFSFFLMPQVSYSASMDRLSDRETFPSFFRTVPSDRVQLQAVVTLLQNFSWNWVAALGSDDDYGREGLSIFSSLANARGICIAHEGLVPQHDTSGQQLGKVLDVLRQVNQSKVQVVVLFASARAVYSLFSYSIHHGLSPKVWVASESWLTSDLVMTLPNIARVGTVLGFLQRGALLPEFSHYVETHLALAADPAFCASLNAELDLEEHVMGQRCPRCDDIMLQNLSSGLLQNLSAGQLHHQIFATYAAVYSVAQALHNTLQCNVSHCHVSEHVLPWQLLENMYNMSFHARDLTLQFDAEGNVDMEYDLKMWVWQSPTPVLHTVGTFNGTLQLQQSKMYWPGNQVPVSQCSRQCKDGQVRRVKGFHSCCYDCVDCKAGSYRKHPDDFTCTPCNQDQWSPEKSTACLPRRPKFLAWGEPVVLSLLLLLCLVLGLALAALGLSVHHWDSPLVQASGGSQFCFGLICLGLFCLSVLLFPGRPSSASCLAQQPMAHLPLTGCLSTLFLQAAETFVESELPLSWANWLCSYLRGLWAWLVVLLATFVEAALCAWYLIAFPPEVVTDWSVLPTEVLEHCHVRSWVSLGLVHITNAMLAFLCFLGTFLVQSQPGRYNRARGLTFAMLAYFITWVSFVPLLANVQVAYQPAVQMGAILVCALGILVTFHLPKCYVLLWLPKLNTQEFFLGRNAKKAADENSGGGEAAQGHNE
# T2: T1R2+3 (Mus musculus, UniProt Q925D8+Q925I4)
# T2 construct: expressed in transfected cells; host or cells: modified HEK-293 cells (PEAKrapid)
# T2 sequence (Q925I4 20-843): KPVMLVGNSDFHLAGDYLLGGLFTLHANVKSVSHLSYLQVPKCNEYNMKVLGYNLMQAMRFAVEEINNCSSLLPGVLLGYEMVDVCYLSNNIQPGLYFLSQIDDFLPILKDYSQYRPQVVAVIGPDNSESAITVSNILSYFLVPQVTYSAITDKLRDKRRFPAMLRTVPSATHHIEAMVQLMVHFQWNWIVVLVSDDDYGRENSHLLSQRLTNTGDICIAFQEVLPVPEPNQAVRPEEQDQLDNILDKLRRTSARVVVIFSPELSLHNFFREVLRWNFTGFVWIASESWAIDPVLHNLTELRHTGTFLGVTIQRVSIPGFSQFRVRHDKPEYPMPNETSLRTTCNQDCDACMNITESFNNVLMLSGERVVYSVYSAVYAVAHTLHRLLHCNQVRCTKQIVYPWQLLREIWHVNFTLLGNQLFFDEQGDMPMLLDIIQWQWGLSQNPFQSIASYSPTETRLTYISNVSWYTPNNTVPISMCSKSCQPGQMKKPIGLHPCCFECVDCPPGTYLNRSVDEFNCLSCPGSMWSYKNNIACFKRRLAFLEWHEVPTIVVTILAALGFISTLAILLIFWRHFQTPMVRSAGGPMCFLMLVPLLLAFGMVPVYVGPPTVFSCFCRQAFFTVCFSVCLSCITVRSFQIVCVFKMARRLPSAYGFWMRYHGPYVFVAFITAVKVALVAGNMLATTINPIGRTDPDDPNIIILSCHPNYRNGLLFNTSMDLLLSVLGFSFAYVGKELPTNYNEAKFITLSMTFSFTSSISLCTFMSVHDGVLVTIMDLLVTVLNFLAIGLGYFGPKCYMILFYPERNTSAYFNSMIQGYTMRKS
# T2 sequence (Q925D8 21-858): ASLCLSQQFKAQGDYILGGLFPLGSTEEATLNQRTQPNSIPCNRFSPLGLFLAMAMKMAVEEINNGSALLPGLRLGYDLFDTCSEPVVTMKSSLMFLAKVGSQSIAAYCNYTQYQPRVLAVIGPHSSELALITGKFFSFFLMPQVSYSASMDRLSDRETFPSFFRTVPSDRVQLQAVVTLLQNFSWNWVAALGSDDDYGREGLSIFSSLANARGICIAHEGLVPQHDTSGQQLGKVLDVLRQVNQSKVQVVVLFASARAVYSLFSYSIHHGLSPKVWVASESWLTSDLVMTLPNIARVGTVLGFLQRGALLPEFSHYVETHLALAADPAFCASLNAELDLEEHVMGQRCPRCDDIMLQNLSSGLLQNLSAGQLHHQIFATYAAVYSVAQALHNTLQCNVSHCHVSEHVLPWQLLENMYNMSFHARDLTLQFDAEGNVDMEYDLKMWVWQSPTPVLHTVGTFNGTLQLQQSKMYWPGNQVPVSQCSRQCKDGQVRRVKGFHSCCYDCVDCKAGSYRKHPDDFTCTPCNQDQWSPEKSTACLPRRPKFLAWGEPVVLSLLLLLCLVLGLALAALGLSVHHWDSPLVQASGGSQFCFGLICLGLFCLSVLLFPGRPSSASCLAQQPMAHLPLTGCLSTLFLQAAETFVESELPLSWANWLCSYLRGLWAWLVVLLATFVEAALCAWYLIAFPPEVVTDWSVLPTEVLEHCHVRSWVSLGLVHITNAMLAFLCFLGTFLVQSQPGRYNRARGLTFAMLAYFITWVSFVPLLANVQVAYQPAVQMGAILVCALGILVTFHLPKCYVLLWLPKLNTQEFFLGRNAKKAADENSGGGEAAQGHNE
# Assays:
# [1] = system: HEK-293 cells; assay: Ca-imaging, receptor independent rises in [Ca2+]i; format: cell-based, human; conditions: high concentrations of sugar
# Experimental: Modified HEK-293 cells (PEAK^rapid cells; Edge BioSystems, Md.) were grown, transfected with […] and promiscuous G-proteins and assayed for functional responses to tastants by Ca-imaging essentially as described previously (Nelson, G. et al., Cell, 106, 381-390 (2001)). Minor differences in FURA-2 loading and Ca-imaging included using 199(H) Medium (Biosource) containing 0.1% BSA, 100 μM EGTA and 200 μM CaCl2 as assay buffer as well as reducing the time allowed for FURA-AM ester cleavage to 10 minutes. The imaging system was an Olympus IX50 microscope equipped with a 10×/0.5 N.A. fluor objective (Zeiss), the TILL imaging system (TILL Photonics GmbH), and a cooled CCD camera. Acquisition and analysis of fluorescence images used TILL-Vision software. To optimize coupling of […]-responses to changes in [Ca^2+]i, C-terminal residues of human Gα16 (Offermanns, S., and Simon, M. I., J Biol Chem, 270, 15175-15180 (1995)) were replaced with the corresponding residues from Gz (Mody, S. M. et al., Mol Pharmacol, 57, 13-23 (2000)), gustducin (McLaughlin, S. K. et al., Nature, 357, 563-569 (1992)) or Gαi2. […] Cell lines stably expressing T1R3 and Ggust-25 were established using puromycin and Zeocin (Invitrogen) selection. Three independent lines expressing T1R3 and Ggust-25 were used to examine the specificity and dose response of the T1R3 receptor.
# [2] = system: T1R knockout mice; assay: Brief access taste test (lick rate relative to control) in wild-type and T1R knockout mice; format: in vivo, mouse; conditions: for behavioral responses, effect of T1R knockouts: T1R1, T1R2, T1R3 knockout versus wild-type
# From the text: Two complementary strategies were used to assay the taste responses of the genetically modified mice. First, we recorded tastant-induced action potentials from one of the major nerves innervating taste receptor cells of the tongue (chorda tympani). This physiological assay monitors the activity of the taste system at the periphery, and provides a measure of taste receptor cell function. Second, we examined taste behavior by measuring taste-choices in standard long-term two-bottle intake preference assays, or by direct counting of immediate licking responses in a multi-channel gustometer (Glendinning, J. I. et al., Chem Senses, 27, 461-474 (2002); Zhang, Y. et al., Cell, 112, 293-301 (2003); see Experimental Procedures). This second method relies on very short exposures to tastants (5 s events over a total of 30 min versus 48 hrs for two-bottle preference assays), and therefore has the great advantage of minimizing the impact of other sensory inputs, and post-ingestive and learning effects from the assay.
# Taste behavior was assayed using a short term assay that directly measures taste preferences by counting immediate licking responses in a multi-channel gustometer (Davis MS160-Mouse gustometer; DiLog Instruments, Tallahassee, Fla.). Mice were trained and tested as described previously (Zhang, Y. et al., Cell, 112, 293-301 (2003)). Individual mice were placed in the gustometer for 30 minutes, and stimuli were presented in random order for 5 s trials that were initiated by the mouse licking the stimulus spout. […] Data points represent the mean rate that mice licked a tastant relative to their sampling of an appropriate control tastant (ratio defined as lick rate relative to control); lick suppression is defined as 1 minus the lick rate relative to control.
# [3] = system: T1R knockout mice; assay: Chorda tympani nerve recordings in wild-type and T1R knockout mice; format: in vivo, mouse; conditions: for physiological responses, effect of T1R knockouts: T1R1, T1R2, T1R3 knockout versus wild-type; for neural responses (chorda tympani): wild-type, T1R1, T1R2 and T1R3 knockout mice, 100 mM citric acid, 100 mM NaCl, 10 mM PROP; for physiological (nerve) responses: T1R3 KO mice, salt effects minimized
# [4] = system: T1R1+3; conditions: cited from earlier work; for activation of T1R1+3: psychophysically relevant concentrations
# [5] = system: T1R2 KO mice expressing a human T1R2 gene; assay: Behavioral taste responses of mice expressing a human T1R2 transgene; format: in vivo, mouse; conditions: for behavioral response to human sweet tastants: humanized T1R2 mice (T1R2 KO + hT1R2 transgene), monellin ~10 uM, thaumatin ~5 uM, aspartame 10 mM, glycyrrhizic acid 500 uM, neohesperidin dihydrochalcone 400 uM
# [6] = system: humans; conditions: sub-millimolar concentrations; cited from earlier work
# [7] = system: rodents; conditions: 100 times higher concentrations than sweet to humans; cited from earlier work
# [8] = target: T1, mouse T1R3 GPCR; assay: Ca-imaging of HEK-293 cells expressing T1R3 and Ggust-25; format: cell-based; conditions: for T1R3 and Ggust-25 dependent responses: >300 mM, three independent stable lines
# [9] = target: T2, T1R2+3; assay: Ca-imaging of HEK-293 cells co-transfected with T1R2 plus T1R3 and Ggust-25; format: cell-based; conditions: control cells expressing T1R2+3
# [10] = T1R1 and T1R3 knockout animals, L-Asp 100 mM, AP4 30 mM
# [11] = T1R3 KO mice, salt effects minimized
molecule,measurement,setting,value
O=C(CO)[C@@H](O)[C@H](O)[C@H](O)CO [fructose],receptor independent rises in [Ca2+]i,[1],significant receptor independent rises in [Ca^2+]i
OC[C@H]1O[C@H](O[C@H]2O[C@H](CO)[C@@H](O)[C@H](O)[C@H]2O)[C@H](O)[C@@H](O)[C@@H]1O [trehalose],receptor independent rises in [Ca2+]i,[1],significant receptor independent rises in [Ca^2+]i
"[Cl-].[Na+] [NaCl, sodium chloride]","behavioral responses, effect of T1R knockouts",[2],no significant effect
same,"physiological responses, effect of T1R knockouts",[3],no significant effect
same,neural responses (chorda tympani),[3],robust neural responses
Nc1nc2c(ncn2[C@@H]2O[C@H](COP(=O)(O)O)[C@@H](O)[C@H]2O)c(=O)[nH]1 [GMP],enhancement of T1R1+3 activity,[4],reliably enhanced
C[C@H](N)C(=O)O [Ala],behavioral attraction,"[2]; T1R1 KO animals, >300 mM",small residual attraction
COC(=O)[C@H](Cc1ccccc1)NC(=O)[C@@H](N)CC(=O)O [aspartame] (H-Asp-Phe-OMe),behavioral attraction,"[5]; 10 mM, three independent human T1R2 transgenic lines",displayed behavioral attraction
same,behavioral response to human sweet tastants,[5],ability to detect and respond
same,sweet taste to humans,[6],taste sweet
same,preference in rodents,[7],no preference
"N[C@@H](CC(=O)O)C(=O)O [L-Asp, aspartic acid]",taste preference relative to water,[2]; [10],complete loss in preference
same,behavioral attraction,[2]; [11],dramatic loss of behavioral attraction
same,physiological (nerve) responses,[3],profound corresponding deficit in physiological responses
same,activation of T1R1+3,[4],activated
OC[C@H]1O[C@@](CO)(O[C@H]2O[C@H](CO)[C@@H](O)[C@H](O)[C@H]2O)[C@@H](O)[C@@H]1O [sucrose],increases in [Ca2+]i (FURA-2),[8]; 500 mM sucrose,increases in [Ca^2+]i
same,T1R3 and Ggust-25 dependent responses,[8],dose dependent responses
same,[Ca2+]i response,[9]; 300 mM sucrose,respond robustly
same,taste preference relative to water,[2]; T1R2 and T1R3 knockout animals,residual responses
OC[C@H]1O[C@H](O[C@H]2[C@H](O)[C@@H](O)C(O)O[C@@H]2CO)[C@H](O)[C@@H](O)[C@@H]1O (mixture of isomers) [maltose],T1R3 and Ggust-25 dependent responses,[8],dose dependent responses
same,taste preference relative to water,[2]; T1R2 and T1R3 knockout animals,residual responses
O=C1NS(=O)(=O)c2ccccc21 [saccharin],[Ca2+]i response,[8]; 300 mM saccharin,No responses were detected
same,[Ca2+]i response,[9]; 30 mM saccharin,respond robustly
"N[C@@H](CCC(=O)O)C(=O)[O-].[Na+] [MSG, monosodium glutamate]",taste preference relative to water,[2]; [10],complete loss in preference
same,integrated chorda tympani response,"[3]; T1R1 and T1R3 knockouts, high concentration of salt (100 mM MSG)",residual responses are detected
N[C@@H](CCC(=O)O)C(=O)O [glutamate],behavioral attraction,[2]; [11],dramatic loss of behavioral attraction
same,physiological (nerve) responses,[3],profound corresponding deficit in physiological responses
N[C@@H](CO)C(=O)O [Ser],behavioral attraction,"[2]; T1R1 KO animals, >300 mM",small residual attraction
O=C(O)CC(O)(CC(=O)O)C(=O)O [citric acid],"behavioral responses, effect of T1R knockouts",[2],no significant effect
same,"physiological responses, effect of T1R knockouts",[3],no significant effect
same,neural responses (chorda tympani),[3],robust neural responses
"CCCc1cc(=O)[nH]c(=S)[nH]1 [PROP, 6-n-propyl-thiouracil]",neural responses (chorda tympani),[3],robust neural responses
O=C[C@H](O)[C@@H](O)[C@@H](O)[C@H](O)CO [galactose],receptor independent rises in [Ca2+]i,[1],significant receptor independent rises in [Ca^2+]i
C[C@@H](O)[C@H](N)C(=O)O [Thr],behavioral attraction,"[2]; T1R1 KO animals, >300 mM",small residual attraction
NC(CCP(=O)(O)O)C(=O)O (stereo not shown) [AP4],taste preference relative to water,[2]; [10],complete loss in preference
same,activation of T1R1+3,[4],activated
CC1(C)[C@@H](O[C@H]2O[C@H](C(=O)O)[C@@H](O)[C@H](O)[C@H]2O[C@@H]2O[C@H](C(=O)O)[C@@H](O)[C@H](O)[C@H]2O)CC[C@]2(C)[C@H]3C(=O)C=C4[C@@H]5C[C@@](C)(C(=O)O)CC[C@]5(C)CC[C@@]4(C)[C@]3(C)CC[C@@H]12 [glycyrrhizic acid],behavioral response to human sweet tastants,[5],ability to detect and respond
"monellin (protein, sweet protein) chain 1: FREIKGYEYQLYVYASDKLFRADISEDYKTRGRKLLRFNGPVPPP chain 2: GEWEIIDIGPFTQNLGKFAVDEENKIGQYGRLTFNKVIRPCMKKTIYEEN",behavioral response to human sweet tastants,[5],ability to detect and respond
same,sweet taste to humans,[6],taste sweet
same,preference in rodents,[7],no preference
"thaumatin (protein, sweet protein) ATFEIVNRCSYTVWAAASKGDAALDAGGRQLNSGESWTINVEPGTNGGKIWARTDCYFDDSGSGICKTGDCGGLLRCKRFGRPPTTLAEFSLNQYGKDYIDISNIKGFNVPMDFSPTTRGCRGVRCAADIVGQCPAKLKAPGGGCNDACTVFQTSEYCCTTGKCGPTEYSRFFKRLCPDAFSYVLDKPTTVTCPGSSNYRVTFCPTA",behavioral response to human sweet tastants,[5],ability to detect and respond
same,sweet taste to humans,[6],taste sweet
same,preference in rodents,[7],no preference
